# In patent US20060069132A1, “Azolecarboxamide herbicides” (priority 2004, published 2006):
# What was measured:
# large crabgrass = experiment: Test B pre-/postemergence herbicide test; format: in vivo, Digitaria sanguinalis
# Summary of the method: (§1)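 Greenhouse pot assay with simultaneous preemergence (treated seed) and postemergence (2–18 cm seedlings) applications of surfactant-containing, non-phytotoxic solvent formulations. Response scored visually 13–15 days later on a 0–100 scale, 100 meaning complete control.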
# velvetleaf = experiment: Test B pre-/postemergence herbicide test; format: in vivo, Abutilon theophrasti
# Summary of the method: as §1
# cocklebur = experiment: Test B pre-/postemergence herbicide test; format: in vivo, Xanthium strumarium
# Summary of the method: (§2)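 Herbicidal effect was judged by eye on a 0–100 scale after plants stood 13 to 15 days in the greenhouse following pre- or postemergence treatment with surfactant-containing formulations.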
# giant foxtail = experiment: Test B pre-/postemergence herbicide test; format: in vivo, Setaria faberi
# Summary of the method: as §1
# wild oat [1] = experiment: Test B postemergence herbicide test; format: in vivo, Avena fatua
# Summary of the method: (§3)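 Treated at 2-leaf (paddy) or 1–4-leaf, 2–18 cm (postemergence); greenhouse 13–15 d; visual score vs control, 0 none to 100 complete control; dash = not tested.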
# pigweed = experiment: Test B pre-/postemergence herbicide test; format: in vivo, Amaranthus retroflexus
# Summary of the method: as §1
# morningglory = experiment: Test B pre-/postemergence herbicide test; format: in vivo, Ipomoea coccinea
# Summary of the method: as §2
# barnyardgrass [2] = experiment: Test B flooded paddy test; format: in vivo, Echinochloa crus-galli; settings: 1000 g ai/ha, scale 0 to 100 (0 no effect, 100 complete control)
# Summary of the method: as §3
# Italian ryegrass = experiment: Test C postemergence herbicide test; format: in vivo, Lolium multiflorum
# Method: (§4) At the same time, plants selected from these crop and weed species and also winter barley (Hordeum vulgare L.), blackgrass (Alopecurus myosuroides Huds.), canarygrass (Phalaris minor Retz.), chickweed (Stellaria media (L.) Vill.), downy bromegrass (Bromus tectorum L.), green foxtail (Setaria viridis (L.) Beauv.), Italian ryegrass (Lolium multiflorum Lam.), wheat (Triticum aestivum L.), wild oat (Avenafatua L.) and windgrass (Apera spica-venti (L.) Beauv.) were treated with postemergence applications of some of the test chemicals formulated in the same manner. Plants ranged in height from 2 to 18 cm (1- to 4-leaf stage) for postemergence treatments. Plant species in the flooded paddy test consisted of rice (Oryza sativa), smallflower umbrella sedge (Cyperus difformis L.), ducksalad (Heteranthera limosa (Sw.) Willd.) and barnyardgrass (Echinochloa crus-galli (L.) Beauv.) grown to the 2-leaf stage for testing. Treated plants and controls were maintained in a greenhouse for 12 to 14 days, after which time all species were compared to controls and visually evaluated. Plant response ratings, summarized in Table C, are based on a scale of 0 to 100 where 0 is no effect and 100 is complete control. A dash (-) response means no test result.
# lambsquarters = experiment: Test B pre-/postemergence herbicide test; format: in vivo, Chenopodium album
# Summary of the method: as §1
# wheat [3] = experiment: Test B postemergence herbicide test; format: in vivo, Triticum aestivum; parameters: key to Wheat plant response rating: 0 = no effect, 100 = complete control
# Summary of the method: as §3
# winter barley = experiment: Test C postemergence herbicide test; format: in vivo, Hordeum vulgare
# Method: as §4
# green foxtail = experiment: Test C postemergence herbicide test; format: in vivo, Setaria viridis
# Method: as §4
# wild oat [4] = experiment: Test C postemergence herbicide test; format: in vivo, Avenafatua
# Method: as §4
# wheat [5] = experiment: Test C postemergence herbicide test; format: in vivo, Triticum aestivum
# Method: as §4
# windgrass = experiment: Test C postemergence herbicide test; format: in vivo, Apera spica-venti
# Method: as §4
# canarygrass = experiment: Test C postemergence herbicide test; format: in vivo, Phalaris minor
# Method: as §4
# rice = experiment: Test B flooded paddy test; format: in vivo, Oryza sativa; settings: 1000 g ai/ha, scale 0 to 100 (0 no effect, 100 complete control)
# Summary of the method: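 Greenhouse test; postemergence application to plants at 1–4 leaves (2–18 cm); paddy species at 2 leaves; evaluated visually vs controls at 13–15 days; scale 0–100 (100 = complete control).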
# Surinam grass = experiment: Test B pre-/postemergence herbicide test; format: in vivo, Urochloa decumbens
# Summary of the method: as §1
# downy bromegrass = experiment: Test C postemergence herbicide test; format: in vivo, Bromus tectorum
# Method: as §4
# [6] = tested on: small flower umbrella sedge; experiment: Test B flooded paddy test; format: in vivo, Cyperus difformis; settings: 1000 g ai/ha, scale 0 to 100 (0 no effect, 100 complete control)
# Summary of the method: as §3
# blackgrass [7] = experiment: Test C postemergence herbicide test; format: in vivo, Alopecurus myosuroides
# Method: as §4
# ducksalad = experiment: Test B flooded paddy test; format: in vivo, Heteranthera limosa; settings: 1000 g ai/ha, scale 0 to 100 (0 no effect, 100 complete control)
# Summary of the method: as §3
# blackgrass [8] = experiment: Test B postemergence herbicide test; format: in vivo, Alopecurus myosuroides
# Summary of the method: as §3
# barnyardgrass [9] = experiment: Test B pre-/postemergence herbicide test; format: in vivo, Echinochloa crus-galli; settings: for Barnyardgrass plant response rating: Postemergence, scale 0 (no effect) to 100 (complete control)
# Summary of the method: as §2
# corn = experiment: Test B pre-/postemergence herbicide test; format: in vivo, Zea mays
# Summary of the method: as §1
# [10] = 125 g ai/ha, 0 is no effect, 100 is complete control, preemergence
# [11] = Postemergence, 500 g ai/ha, scale 0 (no effect) to 100 (complete control)
# [12] = postemergence, 125 g ai/ha, scale 0 to 100
# [13] = Postemergence, 500 g ai/ha, scale 0 to 100, 0 no effect, 100 complete control
# [14] = postemergence, 62 g ai/ha, scale 0 to 100
# [15] = Postemergence, 500 g ai/ha, scale 0 to 100
# [16] = Postemergence, 250 g ai/ha, scale 0 to 100, 0 no effect, 100 complete control
compound,measurement,setting,value
C=CCN(CC=C)C(=O)c1cccc(NC(=O)c2nn(C(C)(C)C)nc2CC)c1 [Compound 415],"Plant response rating (0 to 100 scale), Crabgrass, Large",large crabgrass; [10],70
same,"Crabgrass, Large plant response rating",large crabgrass; [11],50
same,"Crabgrass, Large plant response rating",large crabgrass; [12],20
same,"Plant response rating (0 to 100 scale), Velvetleaf",velvetleaf; [10],20
same,Velvetleaf plant response rating,velvetleaf; [11],50
same,Velvetleaf plant response rating,velvetleaf; [12],30
same,"Plant response rating (0 to 100 scale), Cocklebur",cocklebur; [10],0
same,Cocklebur plant response rating,cocklebur; [11],50
same,Cocklebur plant response rating,cocklebur; [12],30
same,"Plant response rating (0 to 100 scale), Foxtail, Giant",giant foxtail; [10],20
same,"Foxtail, Giant plant response rating",giant foxtail; [11],40
same,"Foxtail, Giant plant response rating",giant foxtail; [12],20
same,"Oat, Wild plant response rating",wild oat [1]; [11],40
same,"Oat, Wild plant response rating",wild oat [1]; [12],30
same,"Plant response rating (0 to 100 scale), Pigweed",pigweed; [10],60
same,Pigweed plant response rating,pigweed; [11],90
same,Pigweed plant response rating,pigweed; [12],70
same,"Plant response rating (0 to 100 scale), Morningglory",morningglory; [10],0
same,Morningglory plant response rating,morningglory; [11],40
same,Morningglory plant response rating,morningglory; [12],10
same,Barnyardgrass plant response rating,barnyardgrass [2],60
same,"Plant response rating, Ryegrass, Italian",Italian ryegrass; [13],45
same,"Plant response rating, Ryegrass, Italian",Italian ryegrass; [12],40
same,"Plant response rating, Ryegrass, Italian",Italian ryegrass; [14],30
same,"Plant response rating (0 to 100 scale), Lambsquarters",lambsquarters; [10],50
same,Lambsquarters plant response rating,lambsquarters; [11],80
same,Lambsquarters plant response rating,lambsquarters; [12],70
same,Wheat plant response rating,"wheat [3]; 500 g ai/ha, scale 0 to 100, 0 no effect, 100 complete control, preemergence",30
same,Wheat plant response rating,wheat [3]; [11],30
same,Wheat plant response rating,wheat [3]; [12],20
same,"Barley, Winter plant response rating",winter barley; [15],45
same,"Plant response rating, Barley, Winter","winter barley; Postemergence, 125 g ai/ha, scale 0 to 100, 0 no effect, 100 complete control",35
same,"Plant response rating, Barley, Winter",winter barley; [16],35
same,"Plant response rating, Barley, Winter","winter barley; postemergence, 62 g ai/ha, scale 0 to 100 (0 no effect, 100 complete control)",35
same,"Plant response rating, Foxtail, Green",green foxtail; [16],50
same,"Plant response rating, Foxtail, Green",green foxtail; [13],60
same,"Plant response rating, Foxtail, Green",green foxtail; [12],50
same,"Plant response rating, Foxtail, Green",green foxtail; [14],45
same,"Plant response rating, Oat, Wild",wild oat [4]; [13],55
same,"Plant response rating, Oat, Wild",wild oat [4]; [12],45
same,"Plant response rating, Oat, Wild",wild oat [4]; [14],40
same,"Plant response rating, Wheat",wheat [5]; [13],30
same,"Plant response rating, Wheat",wheat [5]; [12],25
same,"Plant response rating, Wheat",wheat [5]; [14],20
same,"Plant response rating, Windgrass",windgrass; [13],65
same,"Plant response rating, Windgrass",windgrass; [12],50
same,"Plant response rating, Windgrass",windgrass; [14],50
same,"Plant response rating, Canarygrass",canarygrass; [16],55
same,"Plant response rating, Canarygrass",canarygrass; [13],65
same,"Plant response rating, Canarygrass",canarygrass; [12],50
same,"Plant response rating, Canarygrass",canarygrass; [14],45
same,Rice plant response rating,rice,50
same,"Plant response rating (0 to 100 scale), Surinam Grass",Surinam grass; [10],20
same,Surinam Grass plant response rating,Surinam grass; [11],30
same,Surinam Grass plant response rating,Surinam grass; [12],10
same,"Plant response rating, Bromegrass, Downy",downy bromegrass; [16],60
same,"Plant response rating, Bromegrass, Downy",downy bromegrass; [13],65
same,"Plant response rating, Bromegrass, Downy",downy bromegrass; [12],60
same,"Plant response rating, Bromegrass, Downy",downy bromegrass; [14],60
same,"Sedge, Umbrella plant response rating",[6],80
same,Blackgrass plant response rating,blackgrass [7]; [15],65
same,"Plant response rating, Blackgrass",blackgrass [7]; [16],60
same,"Plant response rating, Blackgrass",blackgrass [7]; [12],60
same,"Plant response rating, Blackgrass",blackgrass [7]; [14],50
same,Ducksalad plant response rating,ducksalad,80
same,Blackgrass plant response rating,blackgrass [8]; [11],40
same,Blackgrass plant response rating,blackgrass [8]; [12],30
same,"Plant response rating (0 to 100 scale), Barnyardgrass",barnyardgrass [9]; [10],10
same,Barnyardgrass plant response rating,barnyardgrass [9]; 125 g ai/ha,20
same,Barnyardgrass plant response rating,barnyardgrass [9]; 500 g ai/ha,20
same,"Plant response rating (0 to 100 scale), Corn",corn; [10],0
same,Corn plant response rating,corn; [11],20
same,Corn plant response rating,corn; [12],20
